Reference: US9732164B2, “Chitosan-derivative compounds and methods of controlling microbial populations” (SYNEDGEN, INC., priority 2006, dated 2017)

Tested on: HeLa cells
Settings: human, 48 h, 1 micromolar

CC(=O)O[C@H]1C(=O)[C@@]2(C)[C@H]([C@H](OC(=O)c3ccccc3)[C@]3(O)C[C@H](OC(=O)[C@H](O)[C@@H](NC(=O)c4ccccc4)c4ccccc4)C(C)=C1C3(C)C)[C@]1(OC(C)=O)CO[C@@H]1C[C@@H]2O [taxol]
HeLa cells killed: ~100%
